Measured values: patent US8367658B2, “Pyrazin-2-yl-pyridin-2-yl-amine and pyrazin-2-yl-pyrimidin-4-yl-amine compounds and their use” (Cancer Research Technology Limited, priority 2007, dated 2013)
“And” between values parts separate entries of the source, which are not always exact repeats. Identical values can stand only once.

Target: T1, CHK1 (Homo sapiens, UniProt O14757)
T1 sequence (O14757 1-476): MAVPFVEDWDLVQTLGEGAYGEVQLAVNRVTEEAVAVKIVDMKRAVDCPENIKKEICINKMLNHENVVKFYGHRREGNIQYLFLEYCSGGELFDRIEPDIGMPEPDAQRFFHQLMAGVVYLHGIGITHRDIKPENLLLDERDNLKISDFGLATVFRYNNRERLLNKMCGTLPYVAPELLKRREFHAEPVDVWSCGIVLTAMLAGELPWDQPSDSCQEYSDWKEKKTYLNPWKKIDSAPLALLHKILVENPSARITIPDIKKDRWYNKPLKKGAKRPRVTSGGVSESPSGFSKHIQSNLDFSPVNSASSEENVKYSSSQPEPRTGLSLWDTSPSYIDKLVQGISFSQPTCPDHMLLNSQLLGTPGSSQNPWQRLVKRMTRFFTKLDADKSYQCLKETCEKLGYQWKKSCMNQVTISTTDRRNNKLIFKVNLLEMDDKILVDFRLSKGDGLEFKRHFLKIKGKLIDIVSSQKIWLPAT
Test: CHK1 kinase function inhibition assay (DELFIA, phosphorylation of a CDC25C peptide)
Assay type: biochemical
Conditions: CHK1 1 nM, ATP 30 μM, 30 minutes at room temperature
Summary of the method: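 Phosphorylation of a CDC25C peptide detected by DELFIA with a phospho-specific antibody. Kinase reaction ran 30 min at room temperature, was stopped with EDTA buffer, then captured on neutravidin-coated plates for 1 h before time-resolved fluorescence read-out with enhancement solution.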

Row | IC50 | Compound
1 | ≤ 100 nM | CC(C)NC(=O)c1cnc(Nc2cnc(C#N)cn2)cc1NCC1CCNCC1 [Compound Y-086, 6-(5-Cyanopyrazin-2-ylamino)-N-isopropyl-4-(piperidin-4-ylmethylamino)nicotinamide]
2 | ≤ 100 nM | N#Cc1cnc(Nc2cc(NCC3CCNCC3)c(C(=O)Nc3cccc(N4CCOCC4)c3)cn2)cn1 [Compound Y-099, 6-(5-Cyanopyrazin-2-ylamino)-N-(3-morpholinophenyl)-4-(piperidin-4-ylmethylamino)nicotinamide]
3 | ≤ 100 nM | N#Cc1cnc(Nc2cc(NCC3CCNCC3)c(Cl)cn2)cn1 [Compound Y-124, 5-(5-chloro-4-(piperidin-4-ylmethylamino)pyridin-2-ylamino)pyrazine-2-carbonitrile]
4 | ≤ 100 nM | N#Cc1cnc(Nc2cc(NCC3CCNCC3)c(C(=O)Nc3ccc(OCCN4CCOCC4)cc3)cn2)cn1 [Compound Y-098, 6-(5-Cyanopyrazin-2-ylamino)-N-(4-(2-morpholinoethoxy)phenyl)-4-(piperidin-4-ylmethylamino)nicotinamide]
5 | ≤ 100 nM | CN1CCC(Nc2cc(Nc3cnc(C#N)cn3)ncc2N)CC1 [Compound Y-007, 5-(5-Amino-4-(1-methylpiperidin-4-ylamino)pyridin-2-ylamino)pyrazine-2-carbonitrile]
6 | ≤ 100 nM | COc1ccc(-c2cnc(Nc3cnc(C#N)cn3)cc2NCC2(F)CCNCC2)cc1 [Compound Y-136, 5-(4-((4-Fluoropiperidin-4-yl)methylamino)-5-(4-methoxyphenyl)pyridin-2-ylamino)pyrazine-2-carbonitrile]
7 | ≤ 100 nM | CS(=O)(=O)c1ccc(-c2cnc(Nc3cnc(C#N)cn3)cc2NCC2CCNCC2)cc1 [Compound Y-130, 5-(5-(4-(methylsulfonyl)phenyl)-4-(piperidin-4-ylmethylamino)pyridin-2-ylamino)pyrazine-2-carbonitrile]
8 | 1000 to 10000 nM | N#Cc1cnc(Nc2cc(NCCC(N)c3ccccc3)c(N)cn2)cn1 (stereo not drawn) [Compound Y-050, 5-(5-Amino-4-(3-amino-3-phenylpropylamino)pyridin-2-ylamino)pyrazine-2-carbonitrile]
9 | ≤ 100 nM | CCOC(=O)c1ccn(-c2cnc(Nc3cnc(C#N)cn3)cc2NCC2CCCNC2)c1 (stereo not drawn) [Compound Y-064, Ethyl 1-(6-(5-cyanopyrazin-2-ylamino)-4-(piperidin-3-ylmethylamino)pyridin-3-yl)-1H-pyrrole-3-carboxylate]
10 | ≤ 100 nM | N#Cc1cnc(Nc2cc(NCC3CCCNC3)c(NC(=O)CCC3CCNCC3)cn2)cn1 (stereo not drawn) [Compound Y-053, N-(6-(5-Cyanopyrazin-2-ylamino)-4-(piperidin-3-ylmethylamino)pyridin-3-yl)-3-(piperidin-4-yl)propanamide]
11 | 1000 to 10000 nM | CN(C)CC(=O)Nc1cnc(Nc2cnc(C#N)cn2)cc1N[C@H]1CCCNC1 [Compound Y-046, (S)—N-(6-(5-Cyanopyrazin-2-ylamino)-4-(piperidin-3-ylamino)pyridin-3-yl)-2-(dimethylamino)acetamide]
12 | ≤ 1000 nM and 100 to 1000 nM | N#Cc1cnc(Nc2cc(NCCC[C@H](N)C(=O)NCc3ccccc3)ncn2)cn1 [Compound Z-011, (S)-2-Amino-N-benzyl-5-(6-(5-cyanopyrazin-2-ylamino)pyrimidin-4-ylamino)pentanamide]
13 | ≤ 100 nM | CN1CCC(Nc2cc(Nc3cnc(C#N)cn3)ncc2Br)CC1 [Compound Y-110, 5-(5-Bromo-4-(1-methylpiperidin-4-ylamino)pyridin-2-ylamino)pyrazine-2-carbonitrile]

Second part, the compound before the results:

Row | Compound | IC50
14 | N#Cc1cnc(Nc2cc(NCC3CCNCC3)c(C(N)=O)cn2)cn1 [Compound Y-101, 6-(5-Cyanopyrazin-2-ylamino)-4-(piperidin-4-ylmethylamino)nicotinamide] | 100 to 1000 nM
15 | N#Cc1cnc(Nc2cc(NCCC3CCNCC3)ncn2)cn1 [Compound Z-029, 5-(6-(2-(Piperidin-4-yl)ethylamino)pyrimidin-4-ylamino)pyrazine-2-carbonitrile] | ≤ 1000 nM and 100 to 1000 nM
16 | COCc1ccc(-c2cnc(Nc3cnc(C#N)cn3)cc2NCC2CCNCC2)cc1 [Compound Y-127, 5-(5-(4-(Methoxymethyl)phenyl)-4-(piperidin-4-ylmethylamino)pyridin-2-ylamino)pyrazine-2-carbonitrile] | ≤ 100 nM
17 | N#Cc1cnc(Nc2cc(OCC3CCNCC3)c(N)cn2)cn1 [Compound Y-038, 5-(5-Amino-4-(piperidin-4-ylmethoxy)pyridin-2-ylamino)pyrazine-2-carbonitrile] | 1000 to 10000 nM
18 | COC/C=C/c1cnc(Nc2cnc(C#N)cn2)cc1NC1CCN(C)CC1 [Compound Y-123, (E)-5-(5-(3-methoxyprop-1-enyl)-4-(1-methylpiperidin-4-ylamino)pyridin-2-ylamino)pyrazine-2-carbonitrile] | ≤ 100 nM
19 | COCCOc1ccc(-c2cnc(Nc3cnc(C#N)cn3)cc2NC[C@H]2CNCCO2)cc1 [Compound Y-157, (R)-5-(5-(4-(2-Methoxyethoxy)phenyl)-4-(morpholin-2-ylmethylamino)pyridin-2-ylamino)pyrazine-2-carbonitrile] | ≤ 100 nM
20 | CN1CCC(Nc2cc(Nc3cnc(C#N)cn3)ncc2-c2ccc(N3CCOCC3)cc2)CC1 [Compound Y-120, 5-(4-(1-Methylpiperidin-4-ylamino)-5-(4-morpholinophenyl)pyridin-2-ylamino)pyrazine-2-carbonitrile] | ≤ 100 nM
21 | COC(=O)c1cnc(Nc2cnc(C#N)cn2)cc1NC(C)C1CCNCC1 (stereo not drawn) [Compound Y-022, Methyl 6-(5-cyanopyrazin-2-ylamino)-4-(1-(piperidin-4-yl)ethylamino)nicotinate] | ≤ 100 nM
22 | COC(=O)c1cnc(Nc2cnc(C)cn2)cc1NC1CCN(C)CC1 [Compound Y-105, methyl 4-(1-methylpiperidin-4-ylamino)-6-(5-methylpyrazin-2-ylamino)nicotinate] | ≤ 100 nM
23 | N#Cc1cnc(Nc2cc(NCCC[C@@H](N)C(=O)Nc3ccccc3)ncn2)cn1 [Compound Z-025, (R)-2-Amino-5-(6-(5-cyanopyrazin-2-ylamino)pyrimidin-4-ylamino)-N-phenylpentanamide] | ≤ 1000 nM and 100 to 1000 nM
24 | N#Cc1cnc(Nc2cc(NCC3CCNCC3)c(C(=O)NCCO)cn2)cn1 [Compound Y-088, 6-(5-Cyanopyrazin-2-ylamino)-N-(2-hydroxyethyl)-4-(piperidin-4-ylmethylamino)nicotinamide] | 100 to 1000 nM
25 | CCOC(=O)c1cc(-c2cnc(Nc3cnc(C#N)cn3)cc2NCC2CCNCC2)cs1 [Compound Y-128, Ethyl 4-(6-(5-cyanopyrazin-2-ylamino)-4-(piperidin-4-ylmethylamino)pyridin-3-yl)thiophene-2-carboxylate] | ≤ 100 nM
26 | N#Cc1cnc(Nc2cc(N[C@H]3CCCNC3)ncn2)cn1 [Compound Z-013, (S)-5-(6-(Piperidin-3-ylamino)pyrimidin-4-ylamino)pyrazine-2-carbonitrile] | 1000 to 10000 nM
27 | CN1CCC(N(C)c2cc(Nc3cnc(C#N)cn3)ncc2-c2ccccc2)CC1 [Compound Y-113, 5-(4-(methyl(1-methylpiperidin-4-yl)amino)-5-phenylpyridin-2-ylamino)pyrazine-2-carbonitrile] | 100 to 1000 nM
28 | COC(=O)c1cnc(Nc2cnc(C#N)cn2)cc1N(C)C1CCN(C)CC1 [Compound Y-070, Methyl 6-(5-cyanopyrazin-2-ylamino)-4-(methyl(1-methylpiperidin-4-yl)amino)nicotinate] | ≤ 100 nM
29 | N#Cc1cnc(Nc2cc(NCC3CCNCC3)c(C(=O)Nc3cccc(F)c3)cn2)cn1 [Compound Y-094, 6-(5-Cyanopyrazin-2-ylamino)-N-(3-fluorophenyl)-4-(piperidin-4-ylmethylamino)nicotinamide] | 100 to 1000 nM
30 | CN(C)CCNc1cc(Nc2cnc(C#N)cn2)ncc1N [Compound Y-004, 5-(5-Amino-4-(2-(dimethylamino)ethylamino)pyridin-2-ylamino)pyrazine-2-carbonitrile] | 1000 to 10000 nM
31 | COC/C=C/c1cnc(Nc2cnc(C#N)cn2)cc1NCC1CCNCC1 [Compound Y-139, (E)-5-(5-(3-Methoxyprop-1-enyl)-4-(piperidin-4-ylmethylamino)pyridin-2-ylamino)pyrazine-2-carbonitrile] | ≤ 100 nM
32 | COC(=O)c1cnc(Nc2cnc(C#N)cn2)cc1N(C)CC1CCNCC1 [Compound Y-021, Methyl 6-(5-cyanopyrazin-2-ylamino)-4-(methyl(piperidin-4-ylmethyl)amino)nicotinate] | ≤ 100 nM
33 | COc1ccc(-c2cnc(Nc3cnc(C#N)cn3)cc2NCCC2CNCCO2)cc1 (stereo not drawn) [Compound Y-137, 5-(5-(4-methoxyphenyl)-4-(2-(morpholin-2-yl)ethylamino)pyridin-2-ylamino)pyrazine-2-carbonitrile] | ≤ 100 nM
34 | CCNC(=O)c1cnc(Nc2cnc(C#N)cn2)cc1NC1CC2CCC(C1)N2C (stereo not drawn) [Compound Y-034, 6-(5-Cyanopyrazin-2-ylamino)-N-ethyl-4-(8-methyl-8-azabicyclo[3.2.1]octan-3-ylamino)nicotinamide] | ≤ 1000 nM and 100 to 1000 nM
35 | COC(C)(C)C#Cc1cnc(Nc2cnc(C#N)cn2)cc1NC[C@@H]1CNCCO1 [Compound Y-155, (S)-5-(5-(3-Methoxy-3-methylbut-1-ynyl)-4-(morpholin-2-ylmethylamino)pyridin-2-ylamino)pyrazine-2-carbonitrile] | ≤ 100 nM
36 | COc1ccc(-c2cnc(Nc3cnc(C#N)cn3)cc2NC2CCNCC2)cc1 [Compound Y-122, 5-(5-(4-Methoxyphenyl)-4-(piperidin-4-ylamino)pyridin-2-ylamino)pyrazine-2-carbonitrile] | ≤ 100 nM
